Source: publication PMC8305236, “New Broth Macrodilution Volatilization Method for Antibacterial Susceptibility Testing of Volatile Agents and Evaluation of Their Toxicity Using Modified MTT Assay In Vitro” (Molecules, 2021)
Values after ≈ are worked out from the molar mass of the structure shown. Where two headings read alike, the source gives them in different places.

Experiments:
[1] = tested on: normal lung fibroblast cells MRC-5; assay: modified MTT cytotoxicity assay
Description: (§1) Lung fibroblast cell line MRC-5, obtained from ATCC, was propagated in Eagle’s Minimum Essential Medium (EMEM) supplemented with 10% fetal bovine serum (FBS), 2 mM glutamine, 10 µL/mL non-essential amino acids, and 1% penicillin–streptomycin solution (10,000 units/mL of penicillin and 10 mg/mL of streptomycin); all these components were purchased from Sigma-Aldrich. The cells were pre-incubated in 96-well microtiter plates at a density of 2.5 × 10^3 cells per well for 24 h at 37 °C in a humidified incubator in an atmosphere of 5% CO2 in air.
(§2) A modified method based on the metabolization of MTT to blue formazan by mitochondrial dehydrogenases in living lung cells previously described by Mosmann was used. The lung fibroblast cells were treated for 72 h with the tested compounds dissolved in DMSO at a maximum concentration of 1% and diluted in the EMEM medium supplemented with 10% FBS. Twelve two-fold serially diluted concentrations of these agents ranging from 512 to 0.25 µg/mL were prepared. The microtiter plates were covered with EVA capmats^TM at 37 °C in a humidified atmosphere of 5% CO2 in air and cultivated for 72 h. Thereafter, MTT reagent (1 mg/mL) in EMEM solution was added to each well and the plates were incubated for an additional 2 h at 37 °C in a humidified atmosphere of 5% CO2 in air. The media were removed, and the intracellular formazan product was dissolved in 100 µL of DMSO. […] The absorbance was measured at 555 nm using a Tecan Infinite M200 spectrometer (Tecan Group, Mannedorf, Switzerland), and the viability was calculated in comparison to that of the untreated control. Three independent experiments (two replicates each) were performed for each test. […] Furthermore, IC80 was calculated as equivalent to the MIC endpoint for comparison of microbiological and toxicological data. Therapeutic indices (TIs) were defined as the ratio of x¯ -IC80 and x¯ -MIC values with the aim of determining the amount of effective antibacterial agents with the quantity causing toxicity.

[2] = modified MTT cytotoxicity assay; conditions: human
Description: as §1, §2

S. aureus = conditions: various strains of S. aureus; cited from earlier work
oral microorganisms = tested on: oral microorganisms; design: method as in PMID 27681039; conditions: disc volatilization method; cited from earlier work
respiratory pathogens = assay: broth macrodilution volatilization method, all four bacteria together; type: cell-based; conditions: mean value of minimal inhibitory concentrations in broth medium
Description: (§3) The following four bacterial standard strains from the American Type Culture Collection (ATCC, Manassas, VA, USA) were used: Haemophilus influenzae ATCC 49247, Staphylococcus aureus ATCC 29213, Streptococcus pneumoniae ATCC 49619, and Streptococcus pyogenes ATCC 19615. Cultivation and assay media (broth/agar) were Mueller–Hinton (MH) complemented by Haemophilus Tested Medium (H. influenzae), MH (S. aureus), and Brain Heart Infusion (S. pneumoniae and S. pyogenes). The pH of the broths was equilibrated to a final value of 7.6 using Trizma base (Sigma-Aldrich, Praha, Czech Republic). […] cultivation media were purchased from Oxoid (Basingstoke, UK).
(§4) Stock cultures of bacterial strains were cultivated in broth medium at 37 °C for 24 h prior to testing. For the preparation of inoculum, the turbidity of the bacterial suspension was adjusted to 0.5 McFarland standard using a Densi-La-Meter II (Lachema, Brno, Czech Republic) to obtain a final concentration of 10^8 CFU/mL.
The antibacterial potential of volatile plant-derived compounds in the liquid and vapor phases was determined using a newly developed broth macrodilution volatilization method performed in standard 2 mL microtubes with snap caps (Eppendorf, Hamburg, Germany). Initially, each sample of compound was dissolved in DMSO at maximum concentration of 1% and diluted in the appropriate broth medium. […] After incubation at 37 °C for 24 h, the MICs were evaluated by the visual assessment of bacterial growth after coloring metabolically active bacterial colonies with MTT dye. The respective volumes of 30 and 375 µL of MTT at a concentration of 600 µg/mL were pipetted into the caps and in the microtubes when the interface of color change from yellow to purple (relative to that of colors in control wells) was recorded in broth and agar (Figure 3c). […] The MIC values were determined as the lowest concentrations that inhibited bacterial growth compared with the compound-free control and are expressed in µg/mL. […]

S. pyogenes = tested on: S. pyogenes; design: method as in PMID 31106894; conditions: cited from earlier work
S. pneumoniae = tested on: S. pneumoniae; design: method as in PMID 31106894; conditions: cited from earlier work
[3] = tested on: Streptococcus pyogenes ATCC 19615; assay: broth macrodilution volatilization method (liquid and vapor phase MIC); type: cell-based; conditions: for MIC: Streptococcus pyogenes, ATCC19615
Description: as §3, §4
(§5) The antibacterial potential of volatile plant-derived compounds in the liquid and vapor phases was determined using a newly developed broth macrodilution volatilization method performed in standard 2 mL microtubes with snap caps (Eppendorf, Hamburg, Germany). Initially, each sample of compound was dissolved in DMSO at maximum concentration of 1% and diluted in the appropriate broth medium. […] The concentration of β-thujaplicin started from 1024 µg/mL and from 128 µg/mL for thymohydroquinone and thymoquninone. In the second step, 90 µL of melted agar was pipetted into rims on the caps (Figure 3a) and inoculated with 5 µL of bacterial suspension after agar solidification. Subsequently, the appropriate concentrations of each sample previously prepared in test tubes were pipetted into microtubes in a final volume of 1500 µL. Then, the microtubes were inoculated with 10 µL of bacterial suspension and closed properly (Figure 3b). Microtubes containing inoculated and non-inoculated media were prepared as growth and purity controls simultaneously. After incubation at 37 °C for 24 h, the MICs were evaluated by the visual assessment of bacterial growth after coloring metabolically active bacterial colonies with MTT dye. The respective volumes of 30 and 375 µL of MTT at a concentration of 600 µg/mL were pipetted into the caps and in the microtubes when the interface of color change from yellow to purple (relative to that of colors in control wells) was recorded in broth and agar (Figure 3c). […] The MIC values were determined as the lowest concentrations that inhibited bacterial growth compared with the compound-free control and are expressed in µg/mL. In the case of the vapor phase, the concentration was also expressed in µg/cm^3 as the weight of the volatile agent per volume unit of a microtube. […] The respective susceptibilities of H. influenzae, S. aureus, S. pneumoniae, and S. pyogenes to ampicillin, oxacillin, amoxicillin, and tetracycline were checked as positive antibiotic controls. All tests were performed as three independent experiments, each carried out in triplicate, and the results were presented as median/modal values. According to the widely accepted norm in MIC testing, the mode and median were used for the final value calculation when triplicate endpoints were within the two- and three-dilution ranges, respectively.

[4] = tested on: Haemophilus influenzae ATCC 49247; assay: as above; type: cell-based
Description: as §3, §4, §5

[5] = tested on: Streptococcus pneumoniae ATCC 49619; assay: as above; type: cell-based; conditions: for MIC: Streptococcus pneumoniae, ATCC49619
Description: as §3, §4, §5

[6] = tested on: Staphylococcus aureus ATCC 29213; assay: as above; type: cell-based
Description: as §3, §4, §5

[7] = tested on: human lung cancer tissues; design: method as in PMID 25105411, doi:10.1177/1934578X1801301223, doi:10.15324/kjcls.2019.51.2.221; conditions: various types of human lung cancer tissues; cited from earlier work
[8] = liquid phase, 37 °C, 24 h, read-out: Minimal Inhibitory Concentration, Broth
[9] = vapor phase, 37 °C, 24 h, read-out: Minimal Inhibitory Concentration, Agar
[10] = vapor phase, weight of volatile agent per volume unit of microtube, read-out: Minimal Inhibitory Concentration, Agar
[11] = ATCC29213, liquid phase, 37 °C, 24 h, read-out: Minimal Inhibitory Concentration, Broth

Question: With `CCC1=C[C@@H]2CN(C1)Cc1c([nH]c3ccccc13)[C@@](C(=O)OC)(c1cc3c(cc1OC)N(C)[C@H]1[C@@](O)(C(=O)OC)[C@H](OC(C)=O)[C@]4(CC)C=CCN5CC[C@]31[C@@H]54)C2` [vinorelbin, reference compound] as the compound, how does the “IC80 ± SD” value ([1]; 80% inhibitory concentration of proliferation, 72 h, plates sealed with EVA capmat) read?
Answer: >10 µg/mL

Question: And the “IC50 ± SD” value ([1]; half maximal inhibitory concentration of proliferation, 72 h, plates sealed with EVA capmat)?
Answer: 0.54 ± 0.26 µg/mL (≈ 0.693 µM)

Question: For `CC(C)c1cccc(=O)c(O)c1` [β-thujaplicin], which IC50 ([1]; Homo sapiens, MRC5, 72 h, read-out: IC50 ± SD) is on record?
Answer: 4.15 ± 0.45 µg/mL (≈ 25.3 µM)

Question: What about the “level of cytotoxic effect (WHO classification)” value ([1]; classified by IC50 in lung fibroblast cells) of the same compound?
Answer: moderate toxicity

Question: What about the TI ([1]; therapeutic index, TI = IC80/x¯ -MIC) of the same compound?
Answer: 3.36

Question: And the IC80 at 72 h [2]?
Answer: 215 ± 9.71 µg/mL (≈ 1310 µM)

Question: What about the MIC (S. aureus) of the same compound?
Answer: 12.5 to 160 µg/mL

Question: And the “growth-inhibitory effect in the gaseous phase” value (oral microorganisms)?
Answer: certain level of growth-inhibitory effect

Question: And the x¯ -MIC (respiratory pathogens)?
Answer: 64 µg/mL

Question: And the MIC (S. pyogenes)?
Answer: 0.3 to 1 µg/mL

Question: What about the MIC (S. pneumoniae) of the same compound?
Answer: 0.3 to 1 µg/mL

Question: What about the MIC [3, 8] of the same compound?
Answer: 64 µg/mL (≈ 390 µM)

Question: What about the MIC [3, 9] of the same compound?
Answer: 1020 µg/mL (≈ 6240 µM)

Question: And the MIC [3, 10]?
Answer: 640 µg/mL (≈ 3900 µM)

Question: And the “Minimal Inhibitory Concentration, Agar” value ([3]; vapor phase, 37 °C, 24 h)?
Answer: low antibacterial efficacy

Question: What about the MIC ([4]; ATCC49247, liquid phase, 37 °C, 24 h, read-out: Minimal Inhibitory Concentration, Broth) of the same compound?
Answer: 64 µg/mL (≈ 390 µM)

Question: What about the MIC ([4]; ATCC49247, vapor phase, 37 °C, 24 h, read-out: Minimal Inhibitory Concentration, Agar) of the same compound?
Answer: 512 µg/mL (≈ 3120 µM)

Question: And the MIC ([4]; ATCC49247, vapor phase, weight of volatile agent per volume unit of microtube, read-out: Minimal Inhibitory Concentration, Agar)?
Answer: 320 µg/mL (≈ 1950 µM)

Question: What about the MIC [5, 8] of the same compound?
Answer: 64 µg/mL (≈ 390 µM)

Question: And the MIC [5, 9]?
Answer: 1020 µg/mL (≈ 6240 µM)

Question: What about the MIC [5, 10] of the same compound?
Answer: 640 µg/mL (≈ 3900 µM)

Question: What about the “Minimal Inhibitory Concentration, Agar” value ([5]; vapor phase, 37 °C, 24 h) of the same compound?
Answer: low antibacterial efficacy

Question: And the MIC [6, 11]?
Answer: 64 µg/mL (≈ 390 µM)

Question: And the MIC ([6]; ATCC29213, vapor phase, 37 °C, 24 h, read-out: Minimal Inhibitory Concentration, Agar)?
Answer: 512 µg/mL (≈ 3120 µM)

Question: What about the MIC ([6]; ATCC29213, vapor phase, weight of volatile agent per volume unit of microtube, read-out: Minimal Inhibitory Concentration, Agar) of the same compound?
Answer: 320 µg/mL (≈ 1950 µM)

Question: And the IC50 [7]?
Answer: 0.26 to 12.32 µg/mL

Question: With `Cc1onc(-c2ccccc2)c1C(=O)N[C@@H]1C(=O)N2[C@@H]1SC(C)(C)[C@@H]2C(=O)O` [oxacillin, reference compound] as the compound, how does the MIC [6, 11] read?
Answer: 0.5 µg/mL (≈ 1.25 µM)

Question: For `CC1(C)S[C@@H]2[C@H](NC(=O)[C@H](N)c3ccc(O)cc3)C(=O)N2[C@H]1C(=O)O` [amoxicillin, reference compound], which MIC [5, 8] is on record?
Answer: 0.25 µg/mL (≈ 0.684 µM)
